Source: PubChem BioAssay AID467 (The Scripps Research Institute Molecular Screening Center, 2006)
Active and inactive are the calls of the source. The rule behind the calls is not given here.

system: parental cell line counter screen, S1P1 agonist assay readout; assay: signal in parental cells, counter-screen for S1P1 agonist project (AID 467);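 note: agonist potency measured against forskolin stimulation plus an EC20 level of SEW2871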

**Q.** For COc1ccc(-n2c(C)cc(C(=O)CSc3nnc(-c4cccs4)o3)c2C)cc1, which EC50 is on record?
**A.** Its EC50 is 32.3 µM (inactive).

**Q.** With CCCC(=O)c1ccc(N2CCN(C(=O)c3ccccc3Br)CC2)c(F)c1 as the compound, how does the EC50 read?
**A.** Its EC50 is 28.2 µM (inactive).

**Q.** CCSc1nnc(NC(=O)C(Cc2ccccc2)n2cccc2)s1 (stereo unspecified) was tested. Which EC50 did it give?
**A.** The EC50 was > 95.1 µM (inactive).

**Q.** With CCCOC(=O)c1ccc(OCC(O)Cn2c(C)nc3ccccc32)cc1 (stereo unspecified) as the compound, how does the EC50 read?
**A.** The EC50 was > 95.1 µM (inactive).

**Q.** With CC(C)c1ccc(OCc2nc(-c3ccccn3)no2)c(Br)c1 as the compound, how does the EC50 read?
**A.** Its EC50 is 63 µM (inactive).

**Q.** How did the EC50 turn out when CCOC(=O)C1CCN(c2ncnc3c2oc2ccc(Cl)cc23)CC1 was run?
**A.** Its EC50 is > 95.1 µM (inactive).

**Q.** Which EC50 does the source give for CC1=C(/C=C/C(C)=C/C=C/C(C)=C/C(=O)O)C(C)(C)CCC1 here?
**A.** Its EC50 is > 95.1 µM (inactive).

**Q.** With COC(=O)CS(=O)(=O)c1nnc([C@H](Cc2ccccc2)NC(=O)OC(C)(C)C)o1 as the compound, how does the EC50 read?
**A.** Its EC50 is 3.68 µM.

**Q.** With Cc1nc2sc(-c3ccccc3)cc2c(=O)n1-n1cccc1 as the compound, how does the EC50 read?
**A.** Its EC50 is > 95.1 µM (inactive).

**Q.** c1ccc(N2CCN(Cc3ccnc4ccccc34)CC2)cc1 was tested. Which EC50 did it give?
**A.** Its EC50 is 47.9 µM (inactive).

**Q.** CC(C)OC(=O)CSc1nc(N)c(C#N)c(-c2cccs2)c1C#N was tested. Which EC50 did it give?
**A.** Its EC50 is > 95.1 µM (inactive).

**Q.** With CCOc1ccc(S(=O)(=O)n2cnc3cc(C)c(C)cc32)cc1 as the compound, how does the EC50 read?
**A.** The EC50 was > 30 µM (inactive).

**Q.** With Cc1ccc(-c2nnc(SCc3ccccc3F)o2)cc1 as the compound, how does the EC50 read?
**A.** Its EC50 is > 95.1 µM (inactive).

**Q.** How did the EC50 turn out when O=C(NCc1ccc2c(c1)OCO2)C1CC(=O)N(C2CCCCCCC2)C1 (stereo unspecified) was run?
**A.** The EC50 was > 95.1 µM (inactive).

**Q.** With COC(=O)c1sc(NC(=O)c2ccc(OC)cc2OC)nc1C as the compound, how does the EC50 read?
**A.** Its EC50 is > 95.1 µM (inactive).

**Q.** For c1ccc2c(c1)oc1c(NCc3ccc4c(c3)OCO4)ncnc12, which EC50 is on record?
**A.** Its EC50 is 38.9 µM (inactive).

**Q.** With O=C(Nc1ccc(-c2noc(CCc3ccccc3)n2)cc1)c1cccnc1 as the compound, how does the EC50 read?
**A.** The EC50 was > 30 µM (inactive).

**Q.** How did the EC50 turn out when CCCc1cc(C(=O)Nc2sc(C)c(CC)c2C#N)no1 was run?
**A.** The EC50 was > 95.1 µM (inactive).

**Q.** For N#Cc1nc(COc2ccc(Cl)cc2Cl)oc1N1CCN(c2ccccc2)CC1, which EC50 is on record?
**A.** Its EC50 is > 95.1 µM (inactive).

**Q.** O=C(CSc1nnc(-c2c[nH]c3ccccc23)o1)N(Cc1ccccc1)c1ccc(F)cc1 was tested. Which EC50 did it give?
**A.** Its EC50 is 16 µM (inactive).

**Q.** How did the EC50 turn out when CCOC(=O)CN1C(=O)C(C)(C)Oc2ccc(C(=O)Nc3ccccc3OC)cc21 was run?
**A.** The EC50 was > 95.1 µM (inactive).

**Q.** How did the EC50 turn out when Clc1ccc(NCn2cncn2)nc1 was run?
**A.** Its EC50 is > 95.1 µM (inactive).

**Q.** Cc1cc(C(=O)N2CCN(C(c3ccccc3)c3ccccc3)CC2)on1 was tested. Which EC50 did it give?
**A.** The EC50 was > 95.1 µM (inactive).

**Q.** With CCCOC(=O)c1[nH]c2c(c1C)C(=O)CC(c1cc(OC)c(OC)c(OC)c1)C2 (stereo unspecified) as the compound, how does the EC50 read?
**A.** Its EC50 is 35.5 µM (inactive).

**Q.** With CCCn1c(CN2CCN(c3cccc(Cl)c3)CC2)nc2c1c(=O)n(C)c(=O)n2C as the compound, how does the EC50 read?
**A.** Its EC50 is > 95.1 µM (inactive).

**Q.** How did the EC50 turn out when O=C(Nc1ccc(N2CCCC2)c(Cl)c1)c1ccc(Br)o1 was run?
**A.** Its EC50 is > 95.1 µM (inactive).

**Q.** How did the EC50 turn out when CC1Cc2cc(-c3csc(NC(=O)Cc4cccs4)n3)ccc2N1S(C)(=O)=O (stereo unspecified) was run?
**A.** Its EC50 is 23.8 µM (inactive).

**Q.** How did the EC50 turn out when Cc1cc(/C=N/n2cnnc2)c(C)n1-c1ccc(OCc2ccc(F)cc2)cc1 was run?
**A.** Its EC50 is 6.71 µM.

**Q.** For COc1ccccc1-n1nnnc1S(=O)(=O)Cc1ccc(Cl)cc1, which EC50 is on record?
**A.** The EC50 was 3.05 µM.

**Q.** With CCOC(=O)c1sc2nc(NC(=O)C(C)(C)C)sc2c1C as the compound, how does the EC50 read?
**A.** The EC50 was > 10 µM (inactive).

**Q.** With CCSc1nc(N2CCOCC2)c2c(c1C#N)CCCC2 as the compound, how does the EC50 read?
**A.** The EC50 was > 95.1 µM (inactive).

**Q.** With CCn1c(SCC(=O)Nc2nc3ccc(C)cc3s2)nc2c(c1=O)SC(C)C2 (stereo unspecified) as the compound, how does the EC50 read?
**A.** Its EC50 is > 10 µM (inactive).

**Q.** How did the EC50 turn out when CC(=O)c1sc(NC(=O)C2(F)C(F)(F)C(F)(F)C(F)(F)C(F)(F)C2(F)F)nc1C was run?
**A.** The EC50 was 31.2 µM (inactive).

**Q.** Which EC50 does the source give for COc1ccc(-c2cc(C(=O)NC3CCCC3)no2)cc1OC here?
**A.** Its EC50 is > 95.1 µM (inactive).

**Q.** For Cc1cccc(N2CCN(C(=O)C3CCCN(S(=O)(=O)c4cccc5cccnc45)C3)CC2)c1C (stereo unspecified), which EC50 is on record?
**A.** The EC50 was 28.7 µM (inactive).

**Q.** How did the EC50 turn out when Cc1cccc(OCCCCc2c(C)n[nH]c2C)c1C was run?
**A.** Its EC50 is 29.3 µM (inactive).

**Q.** How did the EC50 turn out when CCOc1ccc(C(C)=O)cc1N1C(=O)C2C3C=CC(O3)C2C1=O (stereo unspecified) was run?
**A.** The EC50 was 4.31 µM.

**Q.** O=C(C1CCC1)N1CCc2cc(S(=O)(=O)Nc3ccc4c(c3)OCCO4)ccc21 was tested. Which EC50 did it give?
**A.** The EC50 was > 95.1 µM (inactive).

**Q.** CC(=O)c1ccc(NC(=O)N2CCN(c3cccc(Cl)c3)CC2)cc1 was tested. Which EC50 did it give?
**A.** Its EC50 is > 30 µM (inactive).

**Q.** How did the EC50 turn out when CCOc1ccc(-c2nc(-c3ccncc3)no2)cc1OCC was run?
**A.** The EC50 was > 95.1 µM (inactive).

**Q.** For Cc1noc(/C=C/N(C)C)c1S(=O)(=O)N1CCN(c2ccccc2)CC1, which EC50 is on record?
**A.** The EC50 was > 95.1 µM (inactive).

**Q.** For CCCCOc1ccc(S(=O)(=O)Nc2cccnc2)cc1, which EC50 is on record?
**A.** Its EC50 is > 95.1 µM (inactive).

**Q.** How did the EC50 turn out when COCCn1c(C)cc(C(=O)CSc2nc3ccccc3o2)c1C was run?
**A.** The EC50 was > 95.1 µM (inactive).

**Q.** With Cc1cc(C(=O)CSc2nnc(-c3cccs3)o2)c(C)n1-c1ccccc1 as the compound, how does the EC50 read?
**A.** The EC50 was 19.2 µM (inactive).

**Q.** Cc1ccc(NC(=O)c2cc(-c3ccco3)on2)cc1C was tested. Which EC50 did it give?
**A.** The EC50 was > 95.1 µM (inactive).

**Q.** How did the EC50 turn out when Clc1ccc(-n2nnnc2Sc2ncnc3sccc23)cc1 was run?
**A.** Its EC50 is 2.87 µM.

**Q.** COc1cccc(NC(=O)Nc2nnc(N3CCCCC3C)s2)c1 (stereo unspecified) was tested. Which EC50 did it give?
**A.** The EC50 was 40 µM (inactive).

**Q.** Which EC50 does the source give for O=C(Nc1ccc(N2CCCCC2)c(Cl)c1)c1ncn[nH]1 here?
**A.** Its EC50 is > 95.1 µM (inactive).

**Q.** With c1ccc(CN2CCN(c3ncnc4c3[nH]c3ccccc34)CC2)cc1 as the compound, how does the EC50 read?
**A.** The EC50 was 12.1 µM (inactive).

**Q.** For Cc1nnc(SCC(=O)N2CCC(c3noc4ccc(F)cc34)CC2)s1, which EC50 is on record?
**A.** The EC50 was > 95.1 µM (inactive).

**Q.** For O=C(c1cc(-c2ccccc2)on1)N1CCN(Cc2ccc3c(c2)OCO3)CC1, which EC50 is on record?
**A.** Its EC50 is > 30 µM (inactive).
